Active and inactive are the calls of the source. A value given as a limit tells only on which side of the number the result lay.

We go through 14 compounds from ChEMBL document CHEMBL1201862, “PubChem BioAssay data set” (2004).

Data set [1] deals with T1, Short transient receptor potential channel 4 (Mus musculus, UniProt Q9QUQ5).
T1 sequence (Q9QUQ5 whole entry): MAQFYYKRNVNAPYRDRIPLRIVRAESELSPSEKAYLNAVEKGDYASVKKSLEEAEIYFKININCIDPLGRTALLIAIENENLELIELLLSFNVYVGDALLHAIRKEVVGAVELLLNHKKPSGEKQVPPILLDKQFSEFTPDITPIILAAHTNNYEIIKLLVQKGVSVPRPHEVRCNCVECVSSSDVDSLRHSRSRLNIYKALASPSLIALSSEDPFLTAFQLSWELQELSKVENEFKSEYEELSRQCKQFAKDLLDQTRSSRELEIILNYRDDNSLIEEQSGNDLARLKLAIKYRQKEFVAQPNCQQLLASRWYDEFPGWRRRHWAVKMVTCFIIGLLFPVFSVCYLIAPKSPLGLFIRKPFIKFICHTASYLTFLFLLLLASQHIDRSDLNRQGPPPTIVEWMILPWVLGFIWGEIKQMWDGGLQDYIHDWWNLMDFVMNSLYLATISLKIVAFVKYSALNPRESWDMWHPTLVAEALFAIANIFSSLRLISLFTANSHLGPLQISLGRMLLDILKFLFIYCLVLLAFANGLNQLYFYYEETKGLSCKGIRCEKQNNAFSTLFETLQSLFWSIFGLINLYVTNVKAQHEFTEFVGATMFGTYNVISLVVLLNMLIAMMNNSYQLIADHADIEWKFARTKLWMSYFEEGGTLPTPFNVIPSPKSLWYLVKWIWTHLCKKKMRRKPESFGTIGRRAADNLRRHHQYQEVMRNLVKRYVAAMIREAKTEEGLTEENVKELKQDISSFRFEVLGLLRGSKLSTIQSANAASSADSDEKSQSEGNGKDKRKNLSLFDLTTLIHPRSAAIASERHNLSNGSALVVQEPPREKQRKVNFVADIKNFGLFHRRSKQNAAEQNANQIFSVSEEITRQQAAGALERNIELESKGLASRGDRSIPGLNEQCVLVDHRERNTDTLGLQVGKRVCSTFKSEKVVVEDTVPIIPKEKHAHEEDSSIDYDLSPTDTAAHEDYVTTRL
The data set is described as follows: mouse TRPC4 channel activators, dose response, cell-based, HEK293 TRPC4/mu-opioid, Fluo-4 calcium (AID 434937). Format: functional.

Data set [2] concerns the target Cytochrome P450 3A4 (Homo sapiens, UniProt P08684).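 Also: CYP3A4 tested as one member of a cytochrome P450 panel screen.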
In data set [3] the target is T2, Cytochrome P450 1A2 (Homo sapiens, UniProt P05177).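 Also: PubChem cytochrome P450 panel assay, CYP1A2 panel member.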
T2 sequence (P05177 whole entry): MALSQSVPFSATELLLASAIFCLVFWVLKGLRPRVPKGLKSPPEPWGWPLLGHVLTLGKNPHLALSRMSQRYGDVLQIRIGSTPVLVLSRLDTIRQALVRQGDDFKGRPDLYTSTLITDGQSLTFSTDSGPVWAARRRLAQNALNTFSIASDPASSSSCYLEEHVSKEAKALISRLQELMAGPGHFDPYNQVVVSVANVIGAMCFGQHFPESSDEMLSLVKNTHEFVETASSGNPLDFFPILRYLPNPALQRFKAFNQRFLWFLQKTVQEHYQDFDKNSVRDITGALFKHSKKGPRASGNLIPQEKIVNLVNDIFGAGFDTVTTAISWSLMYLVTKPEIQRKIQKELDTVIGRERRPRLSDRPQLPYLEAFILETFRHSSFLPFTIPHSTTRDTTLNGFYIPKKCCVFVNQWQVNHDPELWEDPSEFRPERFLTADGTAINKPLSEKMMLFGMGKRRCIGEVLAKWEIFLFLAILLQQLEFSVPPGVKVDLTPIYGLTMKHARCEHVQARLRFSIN

The target of data set [4] is Cytochrome P450 2C9 (Homo sapiens, UniProt P11712).
Data set [5] in a line: Luminescence Cell-Based Dose Response to Identify Activators of 5'UTR Stem-Loop Driven Prion Protein mRNA Translation in H4-C Neuroglioblastoma Cells. [Related pubchem assays: 1829 (Project Summary), 1814 (Primary HTS)]. Format: functional.
Data set [6] can be described thus: Luminescence Cell-Based Dose Confirmation HTS to Identify Activators of 5'UTR Stem-Loop Driven Alpha-Synuclein mRNA Translation in H4 Neuroglioblastoma Cells. [Related pubchem assays: 1829 (Project Summary), 1814 (Primary HTS)]. In kind it is functional.
Data set [7] in a line: Luminescence Cell-Based Dose Response HTS to Identify Activators of Luciferase Translation or Activity in H4 […] Cells. [Related pubchem assays: 1829 (Project Summary), 1814 (Primary HTS)]. Format: functional.
Data set [8] concerns the target T3, Tyrosine-protein phosphatase non-receptor type 7 (Homo sapiens, UniProt P35236).
T3 sequence (P35236 whole entry): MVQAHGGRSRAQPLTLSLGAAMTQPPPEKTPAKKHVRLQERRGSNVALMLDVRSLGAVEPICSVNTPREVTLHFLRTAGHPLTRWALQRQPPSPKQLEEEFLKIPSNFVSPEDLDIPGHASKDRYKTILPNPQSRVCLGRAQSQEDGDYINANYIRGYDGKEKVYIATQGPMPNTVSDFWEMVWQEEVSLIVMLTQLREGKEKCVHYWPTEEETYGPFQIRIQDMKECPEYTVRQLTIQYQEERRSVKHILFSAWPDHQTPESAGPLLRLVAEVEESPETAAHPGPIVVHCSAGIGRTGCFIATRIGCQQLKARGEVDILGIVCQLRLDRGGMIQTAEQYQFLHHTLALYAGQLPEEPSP
Format: functional.

Data set [9] deals with H4. The data set is described as follows: Luminescence Cell-Based Dose Response HTS to Identify Activators of 5'UTR Stem-Loop Driven Prion Protein mRNA Translation in H4 Neuroglioblastoma Cells. [Related pubchem assays: 1829 (Project Summary), 1814 (Primary HTS)]. Format: functional. The following applies: Homo sapiens.
Data set [10] is described as follows: Luminescence Cell-Based Dose Response to Identify Activators of Luciferase Translation or Activity in H4-C Neuroglioblastoma Cells. [Related pubchem assays: 1829 (Project Summary), 1814 (Primary HTS)]. In kind it is functional.
Data set [11] can be described thus: Luminescence Cell-Based Dose Confirmation to Identify Activators of 5'UTR Stem-Loop Driven Alpha-Synuclein mRNA Translation in H4 Neuroglioblastoma Cells. [Related pubchem assays: 1829 (Project Summary), 1814 (Primary HTS)]. In kind it is functional.
Data set [12] deals with T4, Tyrosine-protein phosphatase non-receptor type 22 (Homo sapiens, UniProt Q9Y2R2).
T4 sequence (Q9Y2R2 whole entry): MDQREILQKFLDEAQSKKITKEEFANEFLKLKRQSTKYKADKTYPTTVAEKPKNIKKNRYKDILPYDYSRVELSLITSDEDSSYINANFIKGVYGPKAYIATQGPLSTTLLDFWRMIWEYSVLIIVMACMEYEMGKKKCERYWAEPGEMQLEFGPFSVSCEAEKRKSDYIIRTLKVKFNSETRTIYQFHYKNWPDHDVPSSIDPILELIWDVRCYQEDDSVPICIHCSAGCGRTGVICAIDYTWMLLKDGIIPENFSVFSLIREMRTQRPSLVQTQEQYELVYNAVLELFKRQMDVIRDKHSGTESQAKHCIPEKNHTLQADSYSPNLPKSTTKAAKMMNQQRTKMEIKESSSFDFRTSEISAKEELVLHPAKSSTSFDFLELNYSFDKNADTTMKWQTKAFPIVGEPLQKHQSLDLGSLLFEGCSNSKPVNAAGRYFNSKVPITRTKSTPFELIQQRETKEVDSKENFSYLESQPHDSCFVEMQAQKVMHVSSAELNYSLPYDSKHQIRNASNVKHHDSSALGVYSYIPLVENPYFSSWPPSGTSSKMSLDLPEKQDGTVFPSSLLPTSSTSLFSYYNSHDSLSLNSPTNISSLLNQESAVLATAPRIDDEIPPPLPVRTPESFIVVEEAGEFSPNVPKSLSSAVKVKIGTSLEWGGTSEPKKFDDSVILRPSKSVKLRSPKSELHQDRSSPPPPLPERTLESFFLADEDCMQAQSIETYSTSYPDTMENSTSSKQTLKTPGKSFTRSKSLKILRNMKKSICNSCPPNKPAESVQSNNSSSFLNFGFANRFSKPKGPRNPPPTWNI
In kind it is functional.

Data set [13] deals with T4, Tyrosine-protein phosphatase non-receptor type 22. Format: functional. The source holds these as a separate data set.
Data set [14] deals with HeLa. The data set is described as follows: HeLa cell cytotoxicity, dose response, cytotoxicity control for MITF activator project, CellTiter-Glo luminescence, cherry-pick samples (AID 540259). Format: functional, cell-based. The following applies: Homo sapiens. For orientation: ATP-based viability assays read luminescence as a measure of living cells.
Data set [15] concerns the target Genome polyprotein (dengue virus type 2, UniProt P29990). Nature of the data set: Dengue-2 NS5 methyltransferase inhibitors, primary screen, biochemical, confirmation dose response (AID 588689). In kind it is functional.
The nature of data set [16]: HEp-2 cell cytotoxicity, dose response, cytotoxicity control for RSV inhibitor project, HTS (AID 2410). In kind it is functional. The following applies: human respiratory syncytial virus.
For data set [17], the system named is Vero. Nature of the data set: cells. Format: functional, cell-based. Particulars: Chlorocebus sabaeus.
Data set [18] in a line: cells.
The target of data set [19] is T1, Short transient receptor potential channel 4. The data set is described as follows: mouse TRPC4 channel inhibitors, dose response, cell-based, HEK293 TRPC4/mu-opioid, Fluo-4 calcium (AID 434942).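 Also: potency of inhibitors blocking the TRPC4 calcium response.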 In kind it is functional.
In data set [20] the target is Cytochrome P450 2C19 (Homo sapiens, UniProt P33261). Nature of the data set: Cytochrome panel assay with activity outcomes. Panel member name: p450-cyp2c19 Compounds with AC50 equal or less than 10 uM are considered active. In kind it is functional. The following applies: read-out: AC50.
Data set [21] concerns the target Cytochrome P450 2D6 (Homo sapiens, UniProt P10635).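 Also: CYP2D6 member of a cytochrome P450 panel assay.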
Data set [22] has as its system Vero. Nature of the data set: cells. In kind it is functional. The following applies: Chlorocebus sabaeus.
The target in data set [23] is SUMO-activating enzyme (Homo sapiens, UniProt Q9UBT2). Nature of the data set: SUMOylation inhibitor hit validation, confirmation, SUMOylation inhibitor project, biochemical, AlphaScreen (AID 2018). Format: functional. (Bead proximity is the source of the signal in Alpha formats.)
The subject of data set [24] is H9c2. Nature of the data set: cells. Particulars: Rattus norvegicus, H9c2, Myocardium. Format: functional, cell-based.

Cytochrome P450 2C19, sequence (P33261 whole entry): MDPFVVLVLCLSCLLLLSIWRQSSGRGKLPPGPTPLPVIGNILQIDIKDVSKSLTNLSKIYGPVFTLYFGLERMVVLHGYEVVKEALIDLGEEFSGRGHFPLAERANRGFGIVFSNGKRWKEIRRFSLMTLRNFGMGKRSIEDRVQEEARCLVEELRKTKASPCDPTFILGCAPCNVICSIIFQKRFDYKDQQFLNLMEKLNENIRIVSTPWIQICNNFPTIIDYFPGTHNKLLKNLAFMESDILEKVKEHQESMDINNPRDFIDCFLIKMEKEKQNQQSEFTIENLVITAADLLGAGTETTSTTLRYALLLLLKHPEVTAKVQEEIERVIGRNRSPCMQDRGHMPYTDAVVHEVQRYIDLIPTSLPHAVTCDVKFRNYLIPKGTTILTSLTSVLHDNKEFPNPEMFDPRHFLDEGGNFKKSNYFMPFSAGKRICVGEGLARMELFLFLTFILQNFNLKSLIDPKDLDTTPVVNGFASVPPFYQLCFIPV
Genome polyprotein, sequence (P29990 2492-3391 limits assumed): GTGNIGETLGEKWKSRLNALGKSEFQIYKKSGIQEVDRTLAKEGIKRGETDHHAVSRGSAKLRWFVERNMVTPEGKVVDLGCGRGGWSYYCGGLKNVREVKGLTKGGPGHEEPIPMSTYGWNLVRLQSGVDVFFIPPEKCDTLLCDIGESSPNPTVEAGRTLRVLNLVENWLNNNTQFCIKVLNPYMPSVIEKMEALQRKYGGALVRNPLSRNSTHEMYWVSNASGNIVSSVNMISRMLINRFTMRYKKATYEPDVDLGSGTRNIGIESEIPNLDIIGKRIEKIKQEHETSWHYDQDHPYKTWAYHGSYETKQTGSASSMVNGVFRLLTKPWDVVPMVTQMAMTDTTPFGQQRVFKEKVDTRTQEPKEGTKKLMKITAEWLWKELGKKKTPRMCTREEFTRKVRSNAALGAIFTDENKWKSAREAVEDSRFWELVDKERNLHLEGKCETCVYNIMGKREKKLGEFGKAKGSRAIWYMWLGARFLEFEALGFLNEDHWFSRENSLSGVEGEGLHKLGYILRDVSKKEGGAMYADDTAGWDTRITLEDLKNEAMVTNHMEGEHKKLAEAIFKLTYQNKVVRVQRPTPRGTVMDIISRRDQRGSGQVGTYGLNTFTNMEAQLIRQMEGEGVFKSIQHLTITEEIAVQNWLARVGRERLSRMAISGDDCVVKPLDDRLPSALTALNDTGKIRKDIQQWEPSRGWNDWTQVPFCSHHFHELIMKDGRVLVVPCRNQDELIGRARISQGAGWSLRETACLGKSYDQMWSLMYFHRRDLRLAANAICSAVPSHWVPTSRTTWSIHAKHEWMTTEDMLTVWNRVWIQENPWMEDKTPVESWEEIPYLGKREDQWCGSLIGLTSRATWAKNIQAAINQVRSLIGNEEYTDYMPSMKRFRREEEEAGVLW
Cytochrome P450 2C9, sequence (P11712 whole entry): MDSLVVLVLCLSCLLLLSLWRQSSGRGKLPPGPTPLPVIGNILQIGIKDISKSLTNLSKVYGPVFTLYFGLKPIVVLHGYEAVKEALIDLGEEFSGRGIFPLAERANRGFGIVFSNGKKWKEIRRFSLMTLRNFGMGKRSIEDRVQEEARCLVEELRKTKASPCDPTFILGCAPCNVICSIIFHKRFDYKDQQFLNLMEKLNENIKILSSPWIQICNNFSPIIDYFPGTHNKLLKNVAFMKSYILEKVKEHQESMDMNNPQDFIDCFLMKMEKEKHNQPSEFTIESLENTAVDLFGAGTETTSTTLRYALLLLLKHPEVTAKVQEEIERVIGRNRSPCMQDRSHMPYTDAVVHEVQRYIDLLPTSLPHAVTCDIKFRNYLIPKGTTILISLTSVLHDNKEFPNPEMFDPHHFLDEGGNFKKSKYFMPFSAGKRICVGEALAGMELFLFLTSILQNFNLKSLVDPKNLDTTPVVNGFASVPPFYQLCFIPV
Cytochrome P450 3A4, sequence (P08684 whole entry): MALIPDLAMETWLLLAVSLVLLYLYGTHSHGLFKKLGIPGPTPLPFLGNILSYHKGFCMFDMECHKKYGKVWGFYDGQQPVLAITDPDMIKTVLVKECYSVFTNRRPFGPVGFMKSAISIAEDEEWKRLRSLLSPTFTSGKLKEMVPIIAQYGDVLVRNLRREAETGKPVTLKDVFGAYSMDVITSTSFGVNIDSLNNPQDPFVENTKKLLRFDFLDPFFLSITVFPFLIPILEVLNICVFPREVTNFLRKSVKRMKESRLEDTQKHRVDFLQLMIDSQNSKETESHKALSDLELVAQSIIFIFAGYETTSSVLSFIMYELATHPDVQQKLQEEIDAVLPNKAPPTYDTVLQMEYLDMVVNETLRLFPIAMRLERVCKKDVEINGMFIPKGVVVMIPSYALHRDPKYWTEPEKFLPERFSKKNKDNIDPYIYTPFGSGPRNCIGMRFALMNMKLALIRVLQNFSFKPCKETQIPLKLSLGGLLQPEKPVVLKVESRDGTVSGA
SUMO-activating enzyme, sequence (Q9UBE0 whole entry): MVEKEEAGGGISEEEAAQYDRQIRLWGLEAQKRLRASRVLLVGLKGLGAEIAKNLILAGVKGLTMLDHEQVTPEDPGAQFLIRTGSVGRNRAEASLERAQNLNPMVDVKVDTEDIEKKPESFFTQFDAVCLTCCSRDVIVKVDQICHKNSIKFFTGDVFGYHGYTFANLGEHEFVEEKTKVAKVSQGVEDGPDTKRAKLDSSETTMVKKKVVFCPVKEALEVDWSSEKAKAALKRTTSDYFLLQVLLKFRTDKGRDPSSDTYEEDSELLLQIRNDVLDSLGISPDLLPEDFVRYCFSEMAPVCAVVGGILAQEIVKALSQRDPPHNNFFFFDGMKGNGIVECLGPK
SUMO-activating enzyme, sequence (Q9UBT2 whole entry): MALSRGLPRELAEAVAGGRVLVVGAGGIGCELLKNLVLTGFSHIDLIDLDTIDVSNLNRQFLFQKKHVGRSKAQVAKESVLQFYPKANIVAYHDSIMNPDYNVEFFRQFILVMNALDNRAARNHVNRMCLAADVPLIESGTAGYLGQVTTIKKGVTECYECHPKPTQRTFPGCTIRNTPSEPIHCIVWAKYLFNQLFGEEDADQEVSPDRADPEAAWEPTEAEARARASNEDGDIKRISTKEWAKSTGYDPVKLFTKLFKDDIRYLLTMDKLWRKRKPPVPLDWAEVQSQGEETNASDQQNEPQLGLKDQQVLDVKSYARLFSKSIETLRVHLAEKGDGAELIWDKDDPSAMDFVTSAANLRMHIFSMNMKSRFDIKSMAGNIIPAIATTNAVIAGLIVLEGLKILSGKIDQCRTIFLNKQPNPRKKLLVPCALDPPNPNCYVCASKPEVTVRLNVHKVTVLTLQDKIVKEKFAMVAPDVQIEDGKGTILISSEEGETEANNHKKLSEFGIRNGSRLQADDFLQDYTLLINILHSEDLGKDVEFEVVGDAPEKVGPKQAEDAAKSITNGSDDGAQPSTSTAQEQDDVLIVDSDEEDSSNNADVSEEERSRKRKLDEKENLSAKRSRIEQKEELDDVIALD
Cytochrome P450 2D6, sequence (P10635 whole entry): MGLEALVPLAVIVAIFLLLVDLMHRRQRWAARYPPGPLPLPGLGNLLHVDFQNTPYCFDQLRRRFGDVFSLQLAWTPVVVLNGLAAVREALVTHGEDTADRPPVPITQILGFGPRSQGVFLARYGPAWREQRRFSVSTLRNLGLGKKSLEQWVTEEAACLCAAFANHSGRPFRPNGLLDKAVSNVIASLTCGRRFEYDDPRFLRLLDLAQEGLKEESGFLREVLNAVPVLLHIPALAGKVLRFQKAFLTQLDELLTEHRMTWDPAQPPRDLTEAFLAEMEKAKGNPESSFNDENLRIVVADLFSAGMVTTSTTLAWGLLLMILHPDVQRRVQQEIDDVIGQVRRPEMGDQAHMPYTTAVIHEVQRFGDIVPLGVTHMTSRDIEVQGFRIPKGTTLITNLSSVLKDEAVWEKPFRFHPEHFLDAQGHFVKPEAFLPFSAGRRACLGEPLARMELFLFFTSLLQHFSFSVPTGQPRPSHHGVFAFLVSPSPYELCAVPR

Broadly, the EC50 is the concentration needed to bring the measured effect to its halfway point. On to `CC1CCCN(CCCNC(=O)c2ccc3c(c2)N(Cc2ccccc2F)C(=O)c2ccccc2S3(=O)=O)C1` (centres undefined), for which the EC50 in data set [1] was 0.944 µM (active).

One may read the AC50 as the concentration giving half of the maximal activity seen. Regarding `COc1ccc(NC(=O)N2CC[C@@]3(CCCN(C(=O)c4c(C)noc4C)C3)C2)cc1`, the concentration at half-maximal activity (AC50) in [2] is 7.94 µM (inconclusive); in [3], “inconclusive”; in data set [4] it was “inconclusive”.

One may read the IC50 as the concentration that inhibits the measured activity by half. In the case of `CCCCCOc1ccc(CN2CCOCC2)cc1Cl`, the EC50 in data set [5] was 1.3 µM (active); in [6], < 0.1 µM (active); in [7] it was < 0.1 µM (inconclusive); in data set [9] it was 35.5 µM (active); in [10], 1.05 µM (active); in [11] it was 0.731 µM (active). Moreover, the IC50 in data set [8], in data set [12] and in data set [13] was > 79.4 µM (inactive) throughout.

With `CCCC(=O)Nc1ccc(C#Cc2ccccc2)cc1`, the AC50 in data set [14] was 173 µM (active).

Take `CCCCc1nc2cc(C(=O)N3CCN(c4nc(C)cnc4C)CC3)ccc2o1`: the AC50 in [14] was 47.3 µM (active).

On to `CCCOC(=O)c1c(-c2ccc(C)cc2C)csc1NC(=O)C1C2CCC(O2)C1C(=O)O` (centres undefined), for which the IC50 is > 79.4 µM (inactive) in data set [8], > 79.4 µM (inactive) in data set [12], > 79.4 µM (inactive) in data set [13] and 55 µM (active) in data set [15].

As usually defined, the CC50 is the concentration that lowers cell viability or growth by half. Regarding `CSc1nnc2c3ccccc3n(CCc3ccccc3)c2n1`, the CC50 in data set [16] was > 50 µM (active). Further, the IC50 in data set [17] was > 12.5 µM (active).

In the case of `Cc1ccc(-c2nc(CCN3C(=O)c4ccccc4C3=O)cs2)cc1`, the figures for the concentration for half-maximal inhibition (IC50) in [17] and in data set [18] were > 25 µM (active) and 47.1 µM (active), respectively.

On to `C/C=C(\C)CN1CCC(n2nccc2NC(=O)CCc2ccccc2)CC1`, for which the EC50 in data set [19] is 0.299 µM (active); in [1] it was 0.267 µM (active).

On to `CN(C)C1(CNC(=O)c2ccc(Cl)c(S(=O)(=O)NCc3ccco3)c2)CCCCC1`, for which, in data set [1], the 50% effective concentration (EC50) is 0.119 µM (active).

Consider `COCCCNC(=O)C1CCC(=O)N1Cc1ccccc1Cl` (centres undefined), for which the AC50 in [20] is 22.4 µM (inconclusive); in data set [21] it was 25.1 µM (inconclusive); in data set [3] it was “inconclusive”.

As to `COC(=O)[C@@]1(Cc2ccc(F)cc2)[C@H]2c3cc(C(=O)N(C)C)n(Cc4cc(F)c(F)c(F)c4)c3C[C@H]2CN1C(=O)c1ccccc1`, the AC50 result in data set [3] is “inconclusive”.

With `CN(C)CC1CCC/C(=C\c2ccc(OC(=O)/C=C/c3ccc(Cl)c(Cl)c3)cc2)C1=O` (centres undefined), the IC50 in data set [17] is > 25 µM (active). The CC50 in data set [22] is 11.5 µM (active).

For the compound `Nc1c(C(=O)N/N=C/c2cccnc2)oc2nc(-c3ccco3)cc(-c3ccco3)c12`, the half-maximal inhibitory concentration (IC50) in data set [23] was 8.88 µM (active); in data set [24], > 79 µM (inactive).
